{"source": "patent US20100080790A1", "about": "“STERILIZATION USING HIGH-PRESSURE CARBON DIOXIDE” (University of South Carolina, priority 2005, published 2010)", "key": {"[1]": {"test_system": "B. pumilus ATCC 27142 spores", "test": "Log reduction of B. pumilus spores on spore strips treated with high-pressure/supercritical CO2 with or without additives, colony counting", "format": "cell-based"}, "[2]": {"test_system": "B. anthracis ΔSterne-1 spores"}, "[3]": {"test_system": "B. atrophaeus ATCC 9372 spores"}, "Lactobacillus plantarum": {"test_system": "Lactobacillus plantarum", "conditions": "high-pressure CO2 treatment, suspension in distilled water at pH 6.0; cited from earlier work"}, "[4]": {"test_system": "Vegetative G. stearothermophilus cells", "conditions": "1.5-hour exposure, 28 bar, 25 °C; cited from earlier work"}, "[5]": {"test_system": "G. stearothermophilus spores", "conditions": "cited from earlier work"}, "[6]": {"conditions": "additive with CO2, conditions of Table 2"}, "[7]": {"conditions": "additive with CO2, 40 °C, 276 bar, 4 hr"}}, "note": "Values joined by “and” are separate entries in the source; they are usually repeats but may differ in a detail not shown here. Equal entries are not always repeated. “Also recorded” adds a separate entry of the source. Where two headings read alike, the source gives them in different places.", "data": [{"smiles": "OO", "note": "[30% H2O2, hydrogen peroxide]", "values": [{"measurement": "LOG REDUCTION", "setting": "[1]", "result": "4.47 ± 0.64 log and 4.60 ± 0.02 log and 6.28 ± 0.46 log and 4.45 ± 0.31 log"}, {"measurement": "deactivation in replicate experiments (in words)", "setting": "[1]", "result": "complete deactivation in two of the three replicate experiments"}, {"measurement": "effectiveness of additive in deactivating B. pumilus spores (in words)", "setting": "[1]", "result": "highly effective; also recorded: the most effective additive among the additives examined"}, {"measurement": "Log reduction", "setting": "[2]", "result": 5.74}, {"measurement": "Log reduction", "setting": "[3]", "result": 6.25}]}, {"smiles": "CCO", "note": "[70% ETHANOL, ethanol]", "values": [{"measurement": "effectiveness of additive in deactivating B. pumilus spores (in words)", "setting": "[1]; [6]", "result": "Neither bulk water, 5 μL of 70% ethanol, nor 5 μL of 70% isopropanol resulted in the required log reduction"}, {"measurement": "LOG REDUCTION", "setting": "[1]; [7]", "result": "0.27 ± 0.16", "unit": "log"}, {"measurement": "effectiveness of additive (in words)", "setting": "[1]; dense-phase CO2, at 40 °C", "result": "neither bulk water, nor ethanol, nor isopropanol were effective additives"}]}, {"smiles": "CC(C)O", "note": "[70% ISOPROPANOL, isopropanol]", "values": [{"measurement": "effectiveness of additive in deactivating B. pumilus spores (in words)", "setting": "[1]; [6]", "result": "Neither bulk water, 5 μL of 70% ethanol, nor 5 μL of 70% isopropanol resulted in the required log reduction"}, {"measurement": "LOG REDUCTION", "setting": "[1]; [7]", "result": "0.17 ± 0.06", "unit": "log"}, {"measurement": "effectiveness of additive (in words)", "setting": "[1]; dense-phase CO2, at 40 °C", "result": "neither bulk water, nor ethanol, nor isopropanol were effective additives"}]}, {"smiles": "O", "note": "[BULK WATER, water]", "values": [{"measurement": "effectiveness of additive (in words)", "setting": "[1]", "result": "neither bulk water, nor ethanol, nor isopropanol were effective additives"}, {"measurement": "effectiveness of additive in deactivating B. pumilus spores (in words)", "setting": "[1]", "result": "Neither bulk water, 5 μL of 70% ethanol, nor 5 μL of 70% isopropanol resulted in the required log reduction"}]}, {"smiles": "O=C=O", "note": "[CO2, carbon dioxide]", "values": [{"measurement": "log reduction", "setting": "[1]", "result": 3.90, "unit": "log"}, {"measurement": "LOG REDUCTION", "setting": "[1]; wetted spore strips with CO2, 4 hr, 103 bar, 60 °C", "result": "1.91 ± 0.23", "unit": "log"}, {"measurement": "LOG REDUCTION", "setting": "[1]; wetted spore strips with CO2, 4 hr, 276 bar, 50 °C", "result": "0.58 ± 0.04", "unit": "log"}, {"measurement": "LOG REDUCTION", "setting": "[1]; wetted spore strips with CO2, 4 hr, 276 bar, 60 °C", "result": "3.06 ± 0.17", "unit": "log"}, {"measurement": "LOG REDUCTION", "setting": "[1]; wetted spore strips with CO2, 4 hr, 276 bar, 80 °C", "result": "3.02 ± 0.07", "unit": "log"}, {"measurement": "log reduction", "setting": "Lactobacillus plantarum", "result": "more than 7 log"}, {"measurement": "log reduction of vegetative cells", "setting": "[4]", "result": "more than 6 log"}, {"measurement": "spores remained viable", "setting": "[5]", "result": 80, "unit": "%"}]}]}
